Data reported in US20180042925A1, “METHODS FOR TREATING CANCER” (CHILDREN'S HOSPITAL MEDICAL CENTER, priority 2015, published 2018).

Columns and labels:
G62 cells = experiment: CellTiter Glo cell viability assay, pharmacological SCD1 inhibition; format: cell-based, human; conditions: vs vehicle (DMSO), FIG. 2B
Protocol: For the pharmacological inhibition studies of FIGS. 2B and 2C, an equal number of G62 cells was seeded in 96 wells in the presence of SCD1 inhibitor or vehicle (DMSO) in quadruplicate. Viable cells were quantified at indicated times using CellTiter Glo cell viability assay kit (Promega).

G68 cells = experiment: as above; format: cell-based, human; conditions: vs vehicle (DMSO), FIG. 2C

Compound: Cc1nnc(-c2ccc(N3CCC(Oc4cc(F)ccc4Cl)CC3)nn2)o1 [CAY10566, 3-[4-(2-chloro-5-fluorophenoxy)-1-piperidinyl]-6-(5-methyl-1,3,4-oxadiazol-2-yl)-pyridazine]
- cell viability in the presence or absence of CAY10566 (G62 cells): induction of G62 cell death and growth inhibition
- cell viability in the presence or absence of CAY10566 (G68 cells): induction of G68 cell death and growth inhibition
